Experiments:
[1] = molecular target: 166 enzymes, transporters and receptors; conditions: read-out: IC50 in screening panel, all assays; cited from earlier work
[2] = system: human Pancreatic cancer cell line BXPC3; experiment: Colony formation assay, pancreatic cancer cell line BXPC3; format: cell-based; conditions: BXPC3, FIG. 16
Experimental: The human Pancreatic cancer cell line BXPC3 was plated (4000 cells per plate with a ˜10% plating efficiency) in 10 cm dishes, using 10 ml of RPMI media (always with 10% FBS) per plate, and placed in a […] incubator (5% CO2) for 24 hrs. After 24 hrs, each plate was treated with one or a combination of the following agents: DMSO (0.2% in solution), 0.3 μg/ml of gemcitabine (dissolved in 1×PBS), and/or 2 μM of each Metnase/Intnase inhibitor (dissolved in DMSO). When the DMSO, gemcitabine, and/or inhibitors were added, the plates were swirled several times to assure mixing. After the agents were added to the RPMI, the plates were put back into the incubators for 18 hrs. Following 18 hrs treatment, the media was removed and the cells were washed twice with 1×PBS. Ten ml of fresh RPMI with 10% FBS was added and the cells were placed back into the incubator for 14 days. After the incubation period that will allow surviving cells to form colonies, the media was discarded and surviving colonies were stained with methylene blue. Colonies, a reflection of a single surviving cell that expanded, were counted to measure survival. All experiments were run in triplicate. Experiments were normalized to either DMSO (black asterices) or gemcitabine (red asterices).

cytochrome P450 enzymes = conditions: cited from earlier work
[3] = system: human myeloid cell line KG-1; experiment: Leukemia cell line KG-1 growth curve, alone or with VP-16; format: cell-based; conditions: counted daily for 4 days
Experimental: The human myeloid cell line KG-1 was grown in RPMI1640 with 10% FBS. The small cell lung cancer cell line CRL5898 was grown in HITES medium (Dulbecco's medium: Ham's F12, 50:50 mix, Insulin 0.005 mg/ml Transferrin 0.01 mg/ml Sodium selenite 30 nM Hydrocortisone 10 nM beta-estradiol 10 nM HEPES 10 mM L-glutamine 2 mM (in addition to that in the base medium)). Both cell lines were seeded at 10,000 cells/ml in the appropriate medium in 6 well plates. The Chem Div compounds were resuspended as 5 mM stock solutions in DMSO. The Chem Div compounds were added alone at 2 uM and 5 uM or in combination with VP-16 (also called etoposide) at 0.05 uM. DMSO was added to the control wells. Cells were plated and treated in triplicate and counted daily for 4 days.

[4] = system: human colon cancer cell line SW48; experiment: Colony formation assay, colon cancer cell line SW48; format: cell-based; conditions: 2 μM inhibitor, 18 hr treatment, colonies after 7-14 days, normalized to DMSO, FIG. 17
Experimental: The human colon cancer cell line SW48 was plated (1000 cells per plate with a ˜20% plating efficiency) in 10 cm dishes, using 10 ml of DMEM media (always with 10% FBS) per plate, and placed in a […] incubator (5% CO2) for 24 hrs. After 24 hr, each plate was treated with one or a combination of the following agents: DMSO (0.2% in solution), 3 μM 5-fluorouracil (5FU, dissolved in 1×PBS), and/or 2 μM of each Metnase/intnase inhibitor (dissolved in DMSO). When the DMSO, 5FU, and/or inhibitors were added, the plates were swirled several times to assure mixing. After agents were added to the DMEM, the plates were put back into the incubators for 18 hr. Following 18 hr treatment, the media was removed and the cells were washed twice with 1×PBS. Ten milliliters of fresh DMEM was added and the cells were placed back into the incubator for 7-14 days. After the incubation period that will allow surviving cells to grow and form colonies, media was discarded and surviving colonies were stained with methylene blue. Colonies, a reflection of a single surviving cell that expanded, were counted to measure survival. All experiments were run in triplicate. Experiments were normalized to either DMSO (black asterices) or 5FU (red asterices).

ABCB1 (MDR-1; P-gp) = ABCB1 (MDR-1; P-gp) (Homo sapiens, UniProt P08183); conditions: not told; cited from earlier work
[5] = in vivo; cited from earlier work
human DNA polymerases = conditions: cited from earlier work

Chain of ABCB1 (MDR-1; P-gp) (P08183 whole entry, species assumed): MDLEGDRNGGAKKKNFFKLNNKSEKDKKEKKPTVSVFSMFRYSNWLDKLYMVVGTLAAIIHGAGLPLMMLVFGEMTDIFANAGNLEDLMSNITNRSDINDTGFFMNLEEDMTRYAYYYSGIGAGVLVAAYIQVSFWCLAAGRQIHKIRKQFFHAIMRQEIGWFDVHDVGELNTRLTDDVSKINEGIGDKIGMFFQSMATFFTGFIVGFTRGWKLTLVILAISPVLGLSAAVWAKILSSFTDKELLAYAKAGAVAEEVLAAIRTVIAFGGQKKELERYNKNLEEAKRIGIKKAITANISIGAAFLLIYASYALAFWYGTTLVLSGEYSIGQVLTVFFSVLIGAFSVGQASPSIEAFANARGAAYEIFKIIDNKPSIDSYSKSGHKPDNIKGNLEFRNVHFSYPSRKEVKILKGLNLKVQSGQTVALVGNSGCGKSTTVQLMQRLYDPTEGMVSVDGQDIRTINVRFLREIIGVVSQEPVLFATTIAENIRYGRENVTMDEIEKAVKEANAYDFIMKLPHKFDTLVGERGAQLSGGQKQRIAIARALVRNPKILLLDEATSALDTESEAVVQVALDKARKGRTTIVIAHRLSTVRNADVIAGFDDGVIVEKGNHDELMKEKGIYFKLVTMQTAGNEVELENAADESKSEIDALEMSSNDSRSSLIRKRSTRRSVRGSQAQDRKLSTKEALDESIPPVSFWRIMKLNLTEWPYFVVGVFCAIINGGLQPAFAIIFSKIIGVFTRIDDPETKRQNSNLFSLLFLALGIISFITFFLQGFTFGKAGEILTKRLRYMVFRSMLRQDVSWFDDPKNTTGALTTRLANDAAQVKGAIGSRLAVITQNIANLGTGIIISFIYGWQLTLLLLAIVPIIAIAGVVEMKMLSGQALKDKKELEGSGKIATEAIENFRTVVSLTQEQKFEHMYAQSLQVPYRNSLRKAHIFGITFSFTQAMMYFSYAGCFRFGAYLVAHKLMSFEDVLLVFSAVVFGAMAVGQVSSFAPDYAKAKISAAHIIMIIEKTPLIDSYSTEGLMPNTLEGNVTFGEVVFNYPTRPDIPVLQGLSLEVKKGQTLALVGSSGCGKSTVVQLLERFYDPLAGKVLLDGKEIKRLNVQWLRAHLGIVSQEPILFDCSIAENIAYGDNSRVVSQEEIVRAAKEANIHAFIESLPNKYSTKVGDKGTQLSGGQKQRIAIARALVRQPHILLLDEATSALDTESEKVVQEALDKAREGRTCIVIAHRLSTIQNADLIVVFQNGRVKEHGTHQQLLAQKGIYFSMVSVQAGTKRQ

## Cc1nnc(C(=O)NC(C)(C)C2=N/C(=C(\O)NCc3ccc(F)cc3)C(=O)C(=O)N2C)o1 [Raltegravir, N-[2-[(4Z)-4-[[(4-fluorophenyl)methylamino]-hydroxymethylidene]-1-methyl-5,6-dioxopyrimidin-2-yl]propan-2-yl]-5-methyl-1,3,4-oxadiazole-2-carboxamide]
[1]
  IC50: > 10 µM
[2]; 2 μM inhibitor + 0.3 μg/ml gemcitabine, 18 hrs, normalized to gemcitabine
  potentiation of gemcitabine (surviving colonies): potentiate gemcitabine
[2]; 2 μM inhibitor, 18 hrs treatment, colonies after 14 days, normalized to DMSO
  activity on their own against the pancreatic cancer cells (surviving colonies): activity on their own
Cytochrome P450 enzymes
  substrate, inducer or inhibitor of cytochrome P450 enzymes: not a substrate, nor an inducer or inhibitor
[3]; lower (low) dose of compound (added at 2 uM and 5 uM)
  effect of compound alone on KG-1 growth, lower/low dose: little effect on leukemia cell growth
[3]; lower (low) dose of compound + VP-16 0.05 uM
  potentiation of low dose VP-16 on KG-1 growth, lower/low dose of compound: potentiated the anti-proliferative effect of low dose VP-16
[4]
  activity on their own against the colon cancer cells (surviving colonies): activity on their own
ABCB1 (MDR-1; P-gp)
  inhibitor of ABCB1 (MDR-1; P-gp): not an inhibitor
[5]
  Serum half-life: 9 h
Human DNA polymerases
  inhibition of human DNA polymerases: does not inhibit

— patent publication US20120093917A1, “METNASE AND INTNASE INHIBITORS AND THEIR USE IN TREATING CANCER” (priority 2009, published 2012)
